Measured values reported in patent US8946263B2, “Compositions and methods for modulating circadian synchronization” (Max-Planck-Gesellchaft zur Forderung der Wissenschaften E.V., priority 2011, dated 2015).

How the values were obtained:
[1] = test system: corticosterone excretion rhythms; assay: Fecal corticosterone excretion rhythm after 16 days of timed metyrapone injection; assay type: in vivo, mouse; conditions: for direction of shift of the peak of maximum glucocorticoid levels: mice
Protocol: Fecal samples were collected at 4-hour intervals before and after the jet lag treatment using wheel cages equipped with wire grid floors. To rule out stress-induced effects, animals were transferred to the collection cages 3 days prior to the first sampling interval. Fecal samples were stored at −80° C. Corticoid metabolite extraction and quantification by RIA (MP Biomedicals) were performed as described previously (Abraham et al. 2006).
Administration of metyrapone (Sigma-Aldrich) to WT mice was done for 16 days prior to the jet lag procedure (see above). Two sets of 24 animals each received metyrapone dissolved in water (100 mg/kg body weight per day) via i.p. injection at different times during the day. Injections were stopped 1 day before the LD shift (day 0). METD animals were injected during the first half of their rest phase at ZT3; METN animals received metyrapone injections at the beginning of their activity phase at ZT12. At day 16 of the treatment (day-1 relative to LD shift), fecal samples were collected to analyze the phase shift of corticoid excretion rhythms. Saline-treated (0.9% NaCl) WT littermates injected at ZT3 or ZT12 were used as controls for all experiments.
Peak time analyses were performed using Prism software (GraphPad). A sine wave equation, y=BaseLine+Amplitude sin(frequency x+PhaseShift), was fitted to the data. For gene expression and corticosterone data, frequency was fixed to 24 hours. Maxima were calculated using the axis section of the second derivative. To determine PS50, a sigmoid dose-response curve with variable slope was fitted to the sine wave maxima (corticosterone), y=Bottom+(Top−Bottom) (1+10(log PS50−x) HillSlope), or onset time points (locomotor activity) for each group. To test whether the best-fit PS50 values differed between data sets, data were compared by extra sum-of-squares F test using a P value of less than 0.05 as a threshold. Maxima of gene expression or corticosterone at specific days were compared by Mann-Whitney rank sum test, even if normality tests and equal variance tests were positive, reflecting the small sample sizes of 3-9. A statistically significant difference was assumed with P values less than 0.05. Correlations between phase-shift activity onsets and corticosterone maxima were performed using linear regression. The quality of fit was estimated by r determination. Departure from linearity was tested with runs test. Normality and homoscedasticity tests were passed for all data sets. Diurnal variation of expression data was tested using Fourier analysis with CircWave version 3.3 software (Oster et al. 2006) and threshold values of 0.05 for α and a period of 24 hours.

WT (C57BL/6J) mice [2] = assay: Behavioral reentrainment (wheel-running activity onsets) after 6-hour phase advance of the LD cycle; assay type: in vivo, mouse
Protocol: (§1) Handling and activity measurements during experiments were performed as described previously (Jud et al. 2005). Wheel-running activity was analyzed using ClockLab software (Actimetrics). For the jet lag experiment (6-hour rapid advance or 8-hour rapid delay of the LD cycle), animals were single-housed in running wheel-equipped cages for 2 weeks or longer under LD conditions (lights on, ZT0; light intensities of 350 lux). On day 1 of the jet lag, the lights-off time (ZT12) was shifted from 6 pm to […] (phase advance paradigm) or from 6 pm to 2 am (phase delay paradigm). Using a short day protocol, we defined day 1 as the first advanced dark period (similar to Davidson et al. 2009, who used a short night approach in which the first day is defined by the deemed light period; but different from Yamazaki et al. 2000, where the following day—corresponding to day 2 in our study—was referred to as day 1). […] Animals were synchronized to the new LD regimen for another 2 weeks during which time of wheel-running activity was recorded. Individual activity onsets before and after the shift were determined by visual inspection and averaged over the whole cohort to asses reentrainment rates. […]
(§2) Peak time analyses were performed using Prism software (GraphPad). […] Maxima were calculated using the axis section of the second derivative. […]

WT (C57BL/6J) mice [3] = assay: Behavioral reentrainment (wheel-running activity onsets) after 8-hour phase delay of the LD cycle; assay type: in vivo, mouse
Protocol: as §1, §2

WT (C57BL/6J) mice [4] = assay: Observations during the 16-day metyrapone injection period before jet lag; assay type: in vivo, mouse; conditions: for effect on the onset of wheel-running activity: during injection period
Protocol: Handling and activity measurements during experiments were performed as described previously (Jud et al. 2005). Wheel-running activity was analyzed using ClockLab software (Actimetrics). For the jet lag experiment (6-hour rapid advance or 8-hour rapid delay of the LD cycle), animals were single-housed in running wheel-equipped cages for 2 weeks or longer under LD conditions (lights on, ZT0; light intensities of 350 lux). On day 1 of the jet lag, the lights-off time (ZT12) was shifted from 6 pm to […] (phase advance paradigm) or from 6 pm to 2 am (phase delay paradigm). Using a short day protocol, we defined day 1 as the first advanced dark period (similar to Davidson et al. 2009, who used a short night approach in which the first day is defined by the deemed light period; but different from Yamazaki et al. 2000, where the following day—corresponding to day 2 in our study—was referred to as day 1). For the delay experiment (8-hour rapid delay of the LD cycle), animals were housed in running wheel—equipped single cages for 2 weeks or longer under LD conditions (lights on, ZT0; light intensities of 50 lux). On day 1 of the jet lag, the lights-off time (ZT12) was shifted from 12 pm to 8 pm. Day 1 was defined here as the day with the first delayed dark period. Animals were synchronized to the new LD regimen for another 2 weeks during which time of wheel-running activity was recorded. Individual activity onsets before and after the shift were determined by visual inspection and averaged over the whole cohort to asses reentrainment rates. Administration of metyrapone (Sigma-Aldrich) to WT mice was done for 16 days prior to the jet lag procedure (see above). Two sets of 24 animals each received metyrapone dissolved in water (100 mg/kg body weight per day) via i.p. injection at different times during the day. Injections were stopped 1 day before the LD shift (day 0). METD animals were injected during the first half of their rest phase at ZT3; METN animals received metyrapone injections at the beginning of their activity phase at ZT12. […]

hamsters = conditions: cited from earlier work
[5] = METD (ZT3 injection, 16 days before shift) vs SALD
[6] = METN (ZT12 injection, 16 days before shift) vs SALN

| Compound | amplitude of glucocorticoid excretion rhythms ([1]; METD and METN, 16 days of treatment, data not shown) | forward shift of corticosterone maximum relative to SALD control ([1]; METD: 100 mg/kg/day i.p. at ZT3 (rest phase) for 16 days, day prior to phase shift) [h] | backward shift of peak corticosterone relative to SALN ([1]; METN: 100 mg/kg/day i.p. at ZT12 (beginning of activity phase) for 16 days) [h] | direction of shift of the peak of maximum glucocorticoid levels ([1]; administration at 6 pm (first half of the active phase)) | direction of shift of the peak of maximum glucocorticoid levels ([1]; administration at 9 am (first half of rest phase)) | activity resetting after 6-hour phase advance (WT (C57BL/6J) mice [2]; [5]) | activity resetting after 6-hour phase advance (WT (C57BL/6J) mice [2]; [6]) | behavioral adaptation after 8-hour phase delay (WT (C57BL/6J) mice [3]; [5]) | behavioral adaptation after 8-hour phase delay (WT (C57BL/6J) mice [3]; [6]) | effect on the onset of wheel-running activity (WT (C57BL/6J) mice [4]; METD mice) | effect on the onset of wheel-running activity (WT (C57BL/6J) mice [4]; METN mice) | side effect of injection (WT (C57BL/6J) mice [4]; daily i.p. injection, 100 mg/kg, 16 days) | circadian responses to light (hamsters) | reentrainment after phase advances of the LD cycle (hamsters) |
| --- | --- | --- | --- | --- | --- | --- | --- | --- | --- | --- | --- | --- | --- | --- |
| CC(C)(C(=O)c1cccnc1)c1cccnc1 [metyrapone, 2-methyl-1,2-di-3-pyridyl-1-propanone] | did not significantly change | 1 | 1 | backward shift | forward shift | accelerated activity resetting | reentrained slower | decelerated adaptation | more rapid behavioural adaptation | no effect | only minor effect | transient drowsiness | – | – |
| CCCc1nn(C)c2c(=O)[nH]c(-c3cc(S(=O)(=O)N4CCN(C)CC4)ccc3OCC)nc12 [sildenafil] | – | – | – | – | – | – | – | – | – | – | – | – | enhances circadian responses to light | accelerates reentrainment |
